Key:
Assay type in all cases: biochemical
PI3K γ = biological target: T1, PI3K γ (Homo sapiens, UniProt P48736); test: PI3K kinase inhibition assay (p110γ)
T1 construct: purchased Sigma
Method: IC50 values are measured using either a standard TLC assay for lipid kinase activity (described below) or a high-throughput membrane capture assay. Kinase reactions are performed by preparing a reaction mixture containing kinase, inhibitor (2% DMSO final concentration), buffer (25 mM HEPES, pH 7.4, 10 mM MgCl2), and freshly sonicated phosphatidylinositol (100 μg/ml). Reactions are initiated by the addition of ATP containing 10 μCi of γ-32P-ATP to a final concentration 10 or 100 μM and allowed to proceed for 5 minutes at room temperature. For TLC analysis, reactions are then terminated by the addition of 105 μl 1N HCl followed by 160 μl CHCl3:MeOH (1:1). The biphasic mixture is vortexed, briefly centrifuged, and the organic phase is transferred to a new tube using a gel loading pipette tip precoated with CHCl3. […] The TLC plates are then dried, exposed to a phosphorimager screen (Storm, Amersham), and quantitated.
Briefly, the assay is a time resolved FRET assay that indirectly measures PIP3 product formed by the activity of a PI3-K. The kinase reaction is performed in a microtitre plate (e.g., a 384 well microtitre plate). The total reaction volume is approximately 20 ul per well. In the first step, each well receives 2 ul of test compound in 20% dimethylsulphoxide resulting in a 2% DMSO final concentration. Next, approximately 14.5 ul of a kinase/PIP2 mixture (diluted in 1× reaction buffer) is added per well for a final concentration of 0.25-0.3 ug/ml kinase and 10 uM PIP2. The plate is sealed and incubated for 15 minutes at room temperature. To start the reaction, 3.5 ul of ATP (diluted in 1× reaction buffer) is added per well for a final concentration of 10 uM ATP. The plate is sealed and incubated for 1 hour at room temperature. The reaction is stopped by adding 5 ul of Stop Solution per well and then 5 ul of Detection Mix is added per well. The plate is sealed, incubated for 1 hour at room temperature, and then read on an appropriate plate reader. Data is analyzed and IC50s are generated using GraphPad Prism 5.

PI3K α = biological target: T2, PI3K α (Homo sapiens, UniProt P42336); test: PI3K kinase inhibition assay (p110α/p85α)
T2 construct: purchased Upstate

mTOR = biological target: T3, mTOR (Homo sapiens, UniProt P42345); test: mTOR kinase inhibition assay
T3 construct: purchased Invitrogen
Method: The compounds described herein can be tested against recombinant mTOR (Invitrogen) in an assay containing 50 mM HEPES, pH 7.5, 1 mM EGTA, 10 mM MgCl2, 2.5 mM, 0.01% Tween, 10 μM ATP (2.5 μCi of μ-32P-ATP), and 3 μg/mL BSA. Rat recombinant PHAS-1/4EBP1 (Calbiochem; 2 mg/mL) is used as a substrate. Reactions are terminated by spotting onto nitrocellulose, which is washed with 1M NaCl/1% phosphoric acid (approximately 6 times, 5-10 minutes each). Sheets are dried and the transferred radioactivity quantitated by phosphorimaging.
This assay is a time resolved FRET platform that measures the phosphorylation of GFP labeled 4EBP1 by mTOR kinase. The kinase reaction is performed in a white 384 well microtitre plate. The total reaction volume is 20 ul per well and the reaction buffer composition is 50 mM HEPES pH7.5, 0.01% Polysorbate 20, 1 mM EGTA, 10 mM MnCl2, and 2 mM DTT. In the first step, each well receives 2 ul of test compound in 20% dimethylsulphoxide resulting in a 2% DMSO final concentration. Next, 8 ul of mTOR diluted in reaction buffer is added per well for a 60 ng/ml final concentration. To start the reaction, 10 ul of an ATP/GFP-4EBP1 mixture (diluted in reaction buffer) is added per well for a final concentration of 10 uM ATP and 0.5 uM GFP-4EBP1. The plate is sealed and incubated for 1 hour at room temperature. […] The plate is sealed, incubated for 1 hour at room temperature, and then read on a plate reader set up for LanthaScreen™ TR-FRET. Data is analyzed and IC50s are generated using GraphPad Prism 5.

PI3K δ = biological target: T4, PI3K δ (Homo sapiens, UniProt O00329); test: PI3K kinase inhibition assay (p110δ/p85α)
T4 construct: purchased Upstate

PI3K β = biological target: T5, PI3K β (Homo sapiens, UniProt P42338); test: PI3K kinase inhibition assay (p110β/p85α)
T5 construct: purchased Upstate
T5 sequence (P42338 whole entry): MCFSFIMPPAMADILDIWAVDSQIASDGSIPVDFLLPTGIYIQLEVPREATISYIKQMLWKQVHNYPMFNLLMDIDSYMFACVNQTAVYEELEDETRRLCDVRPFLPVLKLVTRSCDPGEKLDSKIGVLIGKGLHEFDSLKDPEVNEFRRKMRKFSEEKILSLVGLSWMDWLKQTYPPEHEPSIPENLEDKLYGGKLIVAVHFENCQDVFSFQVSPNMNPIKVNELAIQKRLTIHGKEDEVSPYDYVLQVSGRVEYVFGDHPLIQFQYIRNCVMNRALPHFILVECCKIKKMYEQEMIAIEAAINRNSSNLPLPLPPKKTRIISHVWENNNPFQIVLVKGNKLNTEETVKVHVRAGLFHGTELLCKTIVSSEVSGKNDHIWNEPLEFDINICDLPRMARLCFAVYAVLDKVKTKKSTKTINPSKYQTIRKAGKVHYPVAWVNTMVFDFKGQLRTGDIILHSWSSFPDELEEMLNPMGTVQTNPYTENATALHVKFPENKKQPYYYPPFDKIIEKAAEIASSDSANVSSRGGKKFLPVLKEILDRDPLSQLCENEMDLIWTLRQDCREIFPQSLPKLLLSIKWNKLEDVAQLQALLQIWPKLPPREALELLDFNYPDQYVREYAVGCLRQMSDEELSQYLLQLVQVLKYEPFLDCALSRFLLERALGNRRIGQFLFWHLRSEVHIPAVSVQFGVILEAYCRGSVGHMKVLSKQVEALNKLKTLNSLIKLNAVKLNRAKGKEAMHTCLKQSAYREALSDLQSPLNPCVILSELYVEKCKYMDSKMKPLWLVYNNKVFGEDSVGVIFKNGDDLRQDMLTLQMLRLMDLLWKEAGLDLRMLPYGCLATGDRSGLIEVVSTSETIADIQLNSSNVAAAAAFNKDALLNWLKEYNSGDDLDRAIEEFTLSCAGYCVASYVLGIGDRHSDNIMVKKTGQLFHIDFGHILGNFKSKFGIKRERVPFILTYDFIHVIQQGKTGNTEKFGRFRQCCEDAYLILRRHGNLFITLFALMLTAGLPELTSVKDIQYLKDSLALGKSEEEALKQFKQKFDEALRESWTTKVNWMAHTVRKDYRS
T5 sequence (P27986 whole entry partner): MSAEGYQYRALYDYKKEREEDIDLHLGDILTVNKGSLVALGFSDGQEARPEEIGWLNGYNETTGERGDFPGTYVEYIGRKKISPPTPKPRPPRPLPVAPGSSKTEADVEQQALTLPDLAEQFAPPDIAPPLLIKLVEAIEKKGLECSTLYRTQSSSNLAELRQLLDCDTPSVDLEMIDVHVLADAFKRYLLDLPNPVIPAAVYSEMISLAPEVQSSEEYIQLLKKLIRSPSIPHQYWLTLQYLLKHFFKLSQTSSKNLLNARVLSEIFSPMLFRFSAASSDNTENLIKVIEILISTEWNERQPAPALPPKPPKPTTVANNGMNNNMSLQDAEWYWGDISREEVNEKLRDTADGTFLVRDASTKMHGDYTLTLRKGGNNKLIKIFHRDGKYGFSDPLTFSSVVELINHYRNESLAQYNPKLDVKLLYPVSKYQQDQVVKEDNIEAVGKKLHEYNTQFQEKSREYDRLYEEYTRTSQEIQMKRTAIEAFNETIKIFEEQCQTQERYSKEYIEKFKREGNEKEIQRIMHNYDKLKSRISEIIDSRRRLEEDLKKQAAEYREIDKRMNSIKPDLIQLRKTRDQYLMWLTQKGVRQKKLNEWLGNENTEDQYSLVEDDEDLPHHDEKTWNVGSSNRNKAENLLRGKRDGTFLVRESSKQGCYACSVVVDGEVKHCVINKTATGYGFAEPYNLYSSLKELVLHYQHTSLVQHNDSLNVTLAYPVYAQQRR

T1 sequence (P48736 whole entry): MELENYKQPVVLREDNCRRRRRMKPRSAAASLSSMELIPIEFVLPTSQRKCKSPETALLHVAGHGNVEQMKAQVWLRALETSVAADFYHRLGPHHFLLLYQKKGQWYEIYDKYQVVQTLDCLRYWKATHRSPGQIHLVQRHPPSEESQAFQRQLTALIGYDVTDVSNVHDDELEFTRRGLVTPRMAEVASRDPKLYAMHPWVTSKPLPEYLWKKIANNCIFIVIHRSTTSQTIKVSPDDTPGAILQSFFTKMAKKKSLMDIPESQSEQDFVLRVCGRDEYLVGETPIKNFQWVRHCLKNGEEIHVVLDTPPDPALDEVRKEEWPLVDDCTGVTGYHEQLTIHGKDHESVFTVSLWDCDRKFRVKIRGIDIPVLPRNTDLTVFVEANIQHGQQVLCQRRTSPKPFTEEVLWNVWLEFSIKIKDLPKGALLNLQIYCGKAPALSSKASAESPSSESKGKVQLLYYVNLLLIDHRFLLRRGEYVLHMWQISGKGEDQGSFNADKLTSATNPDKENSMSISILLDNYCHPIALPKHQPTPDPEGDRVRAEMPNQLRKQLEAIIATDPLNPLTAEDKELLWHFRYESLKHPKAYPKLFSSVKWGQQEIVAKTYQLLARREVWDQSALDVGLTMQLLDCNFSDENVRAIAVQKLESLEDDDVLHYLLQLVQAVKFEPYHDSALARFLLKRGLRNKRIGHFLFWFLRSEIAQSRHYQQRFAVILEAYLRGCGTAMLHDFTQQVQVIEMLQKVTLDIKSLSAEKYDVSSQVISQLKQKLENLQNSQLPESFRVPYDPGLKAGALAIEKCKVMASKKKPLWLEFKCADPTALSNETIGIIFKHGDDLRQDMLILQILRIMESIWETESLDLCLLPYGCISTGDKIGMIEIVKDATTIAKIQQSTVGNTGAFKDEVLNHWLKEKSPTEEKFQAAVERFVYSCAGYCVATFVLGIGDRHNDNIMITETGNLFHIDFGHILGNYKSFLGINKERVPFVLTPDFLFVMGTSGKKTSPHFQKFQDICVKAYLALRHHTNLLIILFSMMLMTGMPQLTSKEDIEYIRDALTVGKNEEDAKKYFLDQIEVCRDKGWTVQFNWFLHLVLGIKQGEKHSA
T2 sequence (P42336 whole entry): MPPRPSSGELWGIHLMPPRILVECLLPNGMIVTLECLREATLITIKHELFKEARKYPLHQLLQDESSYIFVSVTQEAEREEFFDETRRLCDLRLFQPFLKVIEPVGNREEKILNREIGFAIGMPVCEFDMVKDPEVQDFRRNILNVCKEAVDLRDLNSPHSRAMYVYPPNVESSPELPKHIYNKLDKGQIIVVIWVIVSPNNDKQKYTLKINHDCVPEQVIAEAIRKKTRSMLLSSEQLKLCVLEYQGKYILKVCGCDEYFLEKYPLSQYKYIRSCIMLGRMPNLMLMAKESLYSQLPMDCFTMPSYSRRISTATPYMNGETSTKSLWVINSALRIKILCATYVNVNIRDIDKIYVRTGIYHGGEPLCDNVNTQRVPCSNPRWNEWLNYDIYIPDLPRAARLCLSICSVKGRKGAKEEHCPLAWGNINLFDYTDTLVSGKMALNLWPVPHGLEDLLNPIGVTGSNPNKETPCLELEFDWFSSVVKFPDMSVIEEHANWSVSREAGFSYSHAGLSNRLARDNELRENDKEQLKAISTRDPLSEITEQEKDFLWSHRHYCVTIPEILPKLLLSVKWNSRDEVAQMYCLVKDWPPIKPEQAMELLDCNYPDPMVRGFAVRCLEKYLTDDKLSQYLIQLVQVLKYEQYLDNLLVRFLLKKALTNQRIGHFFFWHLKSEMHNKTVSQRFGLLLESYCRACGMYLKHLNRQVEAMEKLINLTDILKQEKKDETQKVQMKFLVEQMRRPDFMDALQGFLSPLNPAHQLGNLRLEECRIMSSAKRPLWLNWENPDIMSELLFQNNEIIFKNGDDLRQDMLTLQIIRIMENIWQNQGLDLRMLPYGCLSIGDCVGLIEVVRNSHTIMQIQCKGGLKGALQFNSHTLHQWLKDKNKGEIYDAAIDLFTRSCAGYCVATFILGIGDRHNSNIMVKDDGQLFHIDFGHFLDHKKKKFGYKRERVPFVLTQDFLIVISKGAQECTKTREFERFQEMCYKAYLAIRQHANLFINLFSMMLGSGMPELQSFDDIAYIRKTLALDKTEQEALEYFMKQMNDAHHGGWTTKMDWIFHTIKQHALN
T2 sequence (P27986 whole entry partner): as the sequence (P27986 whole entry partner) above
T4 sequence (O00329 whole entry): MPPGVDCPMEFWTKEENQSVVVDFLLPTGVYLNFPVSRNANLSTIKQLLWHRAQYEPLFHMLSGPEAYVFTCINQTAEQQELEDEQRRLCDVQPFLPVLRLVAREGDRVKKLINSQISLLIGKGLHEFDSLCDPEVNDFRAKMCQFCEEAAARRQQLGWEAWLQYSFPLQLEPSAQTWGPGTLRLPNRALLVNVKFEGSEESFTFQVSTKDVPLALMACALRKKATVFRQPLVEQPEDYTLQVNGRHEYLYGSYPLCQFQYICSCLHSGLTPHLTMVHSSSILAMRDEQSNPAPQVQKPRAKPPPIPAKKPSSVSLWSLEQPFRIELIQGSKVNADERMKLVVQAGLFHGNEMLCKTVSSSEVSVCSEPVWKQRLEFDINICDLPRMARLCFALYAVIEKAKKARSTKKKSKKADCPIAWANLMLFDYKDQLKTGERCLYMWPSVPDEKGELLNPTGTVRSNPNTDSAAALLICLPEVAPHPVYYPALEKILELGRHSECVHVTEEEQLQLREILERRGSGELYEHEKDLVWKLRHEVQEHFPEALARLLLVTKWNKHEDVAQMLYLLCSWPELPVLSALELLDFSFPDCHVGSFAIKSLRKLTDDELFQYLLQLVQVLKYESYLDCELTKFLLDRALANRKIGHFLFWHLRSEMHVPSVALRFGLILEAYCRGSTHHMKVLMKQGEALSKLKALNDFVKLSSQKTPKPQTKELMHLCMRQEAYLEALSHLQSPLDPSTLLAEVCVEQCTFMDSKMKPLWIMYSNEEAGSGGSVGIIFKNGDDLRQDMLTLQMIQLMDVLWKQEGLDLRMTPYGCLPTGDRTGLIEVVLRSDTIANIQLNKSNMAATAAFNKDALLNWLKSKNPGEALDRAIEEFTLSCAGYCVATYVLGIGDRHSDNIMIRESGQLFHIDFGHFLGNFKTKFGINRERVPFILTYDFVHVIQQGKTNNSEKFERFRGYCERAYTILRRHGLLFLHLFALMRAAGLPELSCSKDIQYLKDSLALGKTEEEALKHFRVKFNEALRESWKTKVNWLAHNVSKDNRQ
T4 sequence (P27986 whole entry partner): as the sequence (P27986 whole entry partner) above

Nc1noc2ccc(-c3nn(CC(=O)N4CCOCC4)c4ncnc(N)c34)cc12 [compound 17]
IC50 (PI3K γ): > 10 µM | IC50 (PI3K α): > 10 µM | IC50 (mTOR): > 10 µM | IC50 (PI3K δ): > 10 µM

CC(C)n1nc(-c2ccc3onc(NC4CC4)c3c2)c2c(N)ncnc21 [compound 16]
IC50 (PI3K α): > 10 µM | IC50 (mTOR): > 10 µM | IC50 (PI3K δ): > 10 µM

CC(=O)Nc1nc2ccc(-c3nn(C(C)C)c4ncnc(N)c34)cc2o1 [compound 3]
IC50 (PI3K α): > 10 µM

CC(C)(CO)n1nc(-c2ccc3oc(N)nc3c2)c2c(N)ncnc21 [compound 27]
IC50 (PI3K γ): > 10 µM | IC50 (PI3K α): < 10 µM | IC50 (PI3K δ): < 1 µM | IC50 (PI3K β): > 10 µM

CC(C)n1cc(-c2ccc3oc(N)nc3c2)c2c(N)ncnc21 [compound 8]
IC50 (PI3K γ): < 1 µM | IC50 (PI3K α): < 1 µM | IC50 (mTOR): < 0.1 µM | IC50 (PI3K δ): < 1 µM | IC50 (PI3K β): > 10 µM

Nc1nc2cc(-c3cn(C4CCOCC4)c4ncnc(N)c34)ccc2o1 [compound 9]
IC50 (PI3K α): < 10 µM | IC50 (PI3K β): > 10 µM

Cc1nc(N)c2c(-c3ccc4oc(N)nc4c3)nn(C(C)C)c2n1 [compound 21]
IC50 (PI3K γ): > 10 µM | IC50 (PI3K α): > 10 µM | IC50 (mTOR): < 1 µM | IC50 (PI3K δ): > 10 µM | IC50 (PI3K β): > 10 µM

Nc1nc2cc(-c3nn(C4CC(O)C4)c4ncnc(N)c34)ccc2o1 (stereo not drawn) [compound 26]
IC50 (PI3K γ): < 0.1 µM | IC50 (PI3K α): < 0.1 µM

Nc1nc2cc(-c3nn(C4CCC(N5CCOCC5)CC4)c4ncnc(N)c34)ccc2o1 (stereo not drawn) [compound 6]
IC50 (PI3K δ): < 1 µM | IC50 (PI3K β): > 10 µM

CC(C)n1nc(-c2ccc3c(NC4CC4)noc3c2)c2c(N)ncnc21 [compound 14]
IC50 (PI3K α): < 10 µM | IC50 (mTOR): < 10 µM | IC50 (PI3K δ): < 10 µM

COC(=O)Nc1noc2cc(-c3nn(C(C)C)c4ncnc(N)c34)ccc12 [compound 20]
IC50 (mTOR): < 10 µM | IC50 (PI3K δ): < 10 µM | IC50 (PI3K β): > 10 µM

CC(=O)Nc1noc2cc(-c3nn(C(C)C)c4ncnc(N)c34)ccc12 [compound 11]
IC50 (mTOR): < 1 µM

CC(=O)N1CCC(n2nc(-c3ccc4oc(N)nc4c3)c3c(N)ncnc32)CC1 [compound 7]
IC50 (PI3K γ): < 10 µM | IC50 (PI3K α): < 1 µM | IC50 (PI3K δ): < 1 µM | IC50 (PI3K β): < 10 µM

CNc1noc2cc(-c3nn(C(C)C)c4ncnc(N)c34)ccc12 [compound 13]
IC50 (PI3K γ): < 1 µM | IC50 (PI3K α): < 10 µM | IC50 (mTOR): < 10 µM | IC50 (PI3K δ): < 1 µM

Nc1nc2cc(-c3nn(C4CCOCC4)c4ncnc(N)c34)ccc2o1 [compound 5]
IC50 (PI3K γ): < 0.1 µM | IC50 (PI3K α): < 1 µM | IC50 (mTOR): < 0.1 µM | IC50 (PI3K δ): < 1 µM | IC50 (PI3K β): < 10 µM

CC(C)n1nc(-c2ccc3nc(N)oc3c2)c2c(N)ncnc21 [compound 4]
IC50 (PI3K γ): < 1 µM | IC50 (PI3K α): < 10 µM | IC50 (mTOR): < 1 µM | IC50 (PI3K δ): < 1 µM | IC50 (PI3K β): < 10 µM

CC(C)n1nc(-c2ccc3c(N)noc3c2)c2c(N)ncnc21 [compound 12]
IC50 (mTOR): < 1 µM

CC(=O)Nc1nc2cc(-c3nn(C(C)C)c4ncnc(N)c34)ccc2o1 [compound 2]
IC50 (PI3K γ): < 1 µM | IC50 (PI3K α): < 10 µM | IC50 (mTOR): < 0.1 µM | IC50 (PI3K δ): < 1 µM | IC50 (PI3K β): > 10 µM

CC(CO)n1nc(-c2ccc3oc(N)nc3c2)c2c(N)ncnc21 (stereo not drawn) [compound 23]
IC50 (PI3K γ): < 10 µM | IC50 (PI3K α): < 10 µM | IC50 (mTOR): < 0.1 µM | IC50 (PI3K δ): < 10 µM | IC50 (PI3K β): > 10 µM

CC(C)n1nc(-c2ccc3onc(N)c3c2)c2c(N)ncnc21 [compound 10]
IC50 (mTOR): < 10 µM

Nc1nc2cc(-c3nn(C4CC(=O)C4)c4ncnc(N)c34)ccc2o1 [compound 25]
IC50 (PI3K γ): < 0.1 µM | IC50 (PI3K α): < 1 µM | IC50 (PI3K δ): < 1 µM | IC50 (PI3K β): < 10 µM

COC(=O)Nc1noc2ccc(-c3nn(C(C)C)c4ncnc(N)c34)cc12 [compound 19]
IC50 (mTOR): < 10 µM | IC50 (PI3K δ): > 10 µM | IC50 (PI3K β): > 10 µM
